Experimental data taken from patent publication US20130203649A1, “INHIBITORS OF TLR SIGNALING BY TARGETING TIR DOMAIN INTERFACES” (UNIVERSITY OF MARYLAND, BALTIMORE, priority 2012, published 2013).
Residues, ends and D or L forms follow the SMILES beside them. No end group written: not given here.

Experiments:
C57BL/6J mice = experiment: In vivo efficiency of decoy peptides (Table 1; LPS challenge in mice); parameters: species or system mouse
Procedure: FIG. 4. Effect of select TRAP decoy peptides on TNF-α and IL-6 in blood following an ip LPS challenge. C57BL/6J mice were injected with TR5, TR6, or TR7 peptide or mock-treated 1 hour before injection of purified E. coli LPS. Peptides and LPS were injected to mice intraperitonealy 10 nmol or 1 μg per gram of animal weight, correspondingly.
FIG. 10. […] (A-E) C57BL/6J mice were injected i.p. with purified Escherichia coli K235 LPS (1 μg/g) or PBS. Peptides (10 nmol/g of animal weight) were injected i.p. (A, B, D, E) or i.v. (C) 1 h before (A, B, and C) or 30 min after (D, E) i.p. injection of LPS. Data in panels A and D show plasma IL-6 and TNF-α levels measured 2 h after LPS challenge. Peptide TM8/9 was used as a non-inhibitory control peptide. Data represent the means±s.e.m. for 6-12 blood samples obtained in at least three independent experiments. *p<0.01. (F, G) C57BL/6J mice were challenged i.p. with a lethal LPS dose (17.5 μg/g). Peptides (10 nmol/g) were injected i.p. 1 h before LPS challenge. […] The statistical significance of changes in mortality and survival time was determined by the Mantel Cox log-rank test using GraphPad Prism software (Version 5.04). *p<0.01.
Eight-week-old C57BL/6J mice were injected with 1 or 17.5 μg/g animal weight of E. coli K235 LPS i.p. Peptides reconstituted in PBS were administered i.p. or i.v. Control groups received equivalent volume of solvent (PBS). The blood samples were collected 1, 2, 4, and 8 h, or 2, 8, and 24 h after LPS challenge. The plasma samples were obtained and kept frozen until TNF-α and IL-6 were measured by ELISA. Survival of animals was monitored every 6-16 h after LPS challenge. All animal experiments were carried out with institutional approval.

TLR4 = experiment: LPS-induced MAPK (ERK, JNK, p38) activation in mouse macrophages (Western analysis); format: cell-based; conditions: for LPS-induced ERK phosphorylation / LPS-induced JNK activation: 30 min LPS 10 ng/ml
Procedure: Cellular protein extracts were isolated by addition of 240 μL per well cold lysate buffer (20 mM Tris, 50 mM NaCl, 1.5 mM MgCl2, 2 mM EDTA, 10 mM NaF, 2 Mm DTT, 1 mM Na3VO4, 1% Triton). Cells were incubated with lysis solution for 30 min on agitator at 4° C. Lysate was then collected and centrifuged at 14,000 g for 10 minutes at 4° C. After quantification using BioRad protein assay, protein samples were added to Laemmli buffer and then boiled for 10 min. Samples were then resolved by SDS-10% PAGE in Tris/glycine/SDS buffer (25 mM Tris, 250 mM glycine, 0.1% SDS), and transferred onto Immobilon P transfer membranes (Millipore, Bedford, Mass.) (100 V, 1.5 h, 4° C.). Membranes were blocked for 1 h in TBS-T (20 mM Tris-HCl, 150 mM NaCl, 0.1% Tween 20) containing 5% nonfat milk, then probed for overnight at 4° C. with the respective antibodies (Abs) (dilution 1:1000 in TBS-T with 2% BSA). After washing in TBS-T, membranes were incubated with secondary HRP-conjugated, donkey anti-rabbit IgG (1:10,000 dilution in TBS-T with 5% nonfat milk) for 1 h at room temperature. Membranes washed five times in TBS-T before development with ECL reagents (GE Healthcare) according to manufacturer's directions.
HEK293T cells were transfected with indicated plasmids using Superfect Transfection Reagent (Qiagen). Twenty-four hours posttransfection, the cells were lysed using the buffer containing 20 mM HEPES (pH 7.4), 150 mM NaCl, 10 mM NaF, 2 mM Na3VO4, 1 mM EDTA, 1 mM EGTA, 0.5% Triton X-100, 0.1 M DTT, 1 mM PMSF, and protease inhibitor mixture (Roche, Indianapolis, Ind.). Rabbit Ab against phospho-ERK, phospho-JNK, MyD88 (D80F5), STAT1-Y701, total STAT1, and GAPDH were purchased from Cell Signaling Technology (Beverly, Mass.). Rabbit anti-phospho-p38 Ab was purchased from Promega (Madison, Wis.). Goat anti-TLR4 (M−16), rabbit anti-TLR4 (H-80), anti-HA-HRP (F-7), and rabbit anti-b-actin Ab were purchased from Santa Cruz Biotechnology. Mouse anti-Flag M2 and rabbit anti-HA Ab were from Sigma-Aldrich. GFP Ab (A1122) was from Invitrogen. Protein was quantified using Bio-Rad protein quantification kit. Equal amount of protein was loaded and analyzed by 10% SDS-PAGE and immunoblotting. The cell extracts containing equal amount of protein were incubated with 1 μg Ab for 2 h, followed by 4-h incubation with 25 μl protein G agarose beads (Roche); the beads were then washed four times with lysis buffer, boiled in […] sample loading buffer, and analyzed by immunoblotting.
We next examined whether TRAM peptides inhibit the TLR4-mediated p38, ERK, and JNK MAPK activation. Murine macrophages pretreated with peptides for 30 min were challenged with LPS. Cell lysates were collected 30 min post-stimulation and analyzed for MAPK phosphorylation by Western analysis. Consistent with peptide effects on steady-state mRNA, both TM4 and TM6 inhibited activation of all three MAPKs (FIG. 5C). The inhibition of MAPKs by TM4 or TM6 was long lasting; it persisted for at least 1 h after LPS stimulation (data not shown). To characterize further the effects of TRAM peptides on MAPKs, murine macrophages were treated with TRAM peptides, but not challenged by LPS.

Row | Compound | In vivo efficiency (C57BL/6J mice) | LPS-induced ERK phosphorylation (TLR4; 20 μM peptide) | LPS-induced JNK activation (TLR4; 20 μM peptide) | LPS-induced p38, ERK, and JNK MAPK activation (TLR4; lysates 30 min after LPS) | LPS-induced activation of p38 and ERK MAPKs (TLR4; 20 μM peptide, LPS 30 min)
1 | CC[C@H](C)[C@H](NC(=O)[C@H](CCCCN)NC(=O)[C@@H](NC(=O)[C@H](CCC(N)=O)NC(=O)[C@@H](N)CCCNC(=N)N)[C@@H](C)CC)C(=O)N[C@@H](Cc1c[nH]c2ccccc12)C(=O)N[C@@H](Cc1ccccc1)C(=O)N[C@@H](CCC(N)=O)C(=O)N[C@@H](CC(N)=O)C(=O)N[C@@H](CCCNC(=N)N)C(=O)N[C@@H](CCCNC(=N)N)C(=O)N[C@@H](CCSC)C(=O)N[C@@H](CCCCN)C(=O)N[C@@H](Cc1c[nH]c2ccccc12)C(=O)N[C@@H](CCCCN)C(=O)N[C@@H](CCCCN)C(=O)N[C@@H](CCC(=O)O)C(=O)N[C@@H](CC(C)C)C(=O)N[C@@H](CS)C(=O)N[C@@H](CCC(N)=O)C(=O)N[C@@H](C)C(=O)N[C@@H](CC(C)C)C(=O)N[C@@H](CO)C(=O)N[C@@H](CCCNC(=N)N)C(=O)N[C@@H](CO)C(=O)N[C@@H](Cc1c[nH]cn1)C(=O)N[C@@H](CS)C(=O)N[C@@H](CCCNC(=N)N)C(=O)O [TR5] (H-RQIKIWFQNRRMKWKKELCQALSRSHCR-OH) | yes, i.p. | potently inhibited |  |  | 
2 | RQIKIWFQNRRMKWKKAAYPPELRFMYYVD [TR9] |  | potently inhibited | inhibited |  | 
3 | RQIKIWFQNRRMKWKKCLQDAIDHSGFT [TF5] | Yes, i.p. |  |  | inhibit | 
4 | RQIKIWFQNRRMKWKKEGSQASLRCF [TR3] |  | potently inhibited | apparent absence of JNK inhibition |  | 
5 | RQIKIWFQNRRMKWKKGGFYQVKEAVIHY [TR11] |  | potently inhibited | inhibited |  | 
6 | RQIKIWFQNRRMKWKKPGFLRDPWCKYQML [TR6] | yes, i.p. | potently inhibited | apparent absence of JNK inhibition |  | potently inhibited
